Usually IC50 stands for the concentration that gives 50% inhibition.

Here are results for 14 molecules from patent US20210070748A1, “INHIBITORS OF BRUTONS TYROSINE KINASE” (Pharmacyclics LLC, priority 2015, published 2021).

Where two headings read alike, the source gives them in different places. Where only a bound is given, the exact number is not on record here.

Common to all, as to assay type: biochemical
The target of one test is T1, BTK-WT (Homo sapiens, UniProt Q06187).
T1 construct: purified from insect cells as a full-length construct containing an N-terminal 6X-His tag; His6 (N); made in house; host or cells: insect cells (baculovirus Sf21 in Method B)
T1 sequence (Q06187 whole entry): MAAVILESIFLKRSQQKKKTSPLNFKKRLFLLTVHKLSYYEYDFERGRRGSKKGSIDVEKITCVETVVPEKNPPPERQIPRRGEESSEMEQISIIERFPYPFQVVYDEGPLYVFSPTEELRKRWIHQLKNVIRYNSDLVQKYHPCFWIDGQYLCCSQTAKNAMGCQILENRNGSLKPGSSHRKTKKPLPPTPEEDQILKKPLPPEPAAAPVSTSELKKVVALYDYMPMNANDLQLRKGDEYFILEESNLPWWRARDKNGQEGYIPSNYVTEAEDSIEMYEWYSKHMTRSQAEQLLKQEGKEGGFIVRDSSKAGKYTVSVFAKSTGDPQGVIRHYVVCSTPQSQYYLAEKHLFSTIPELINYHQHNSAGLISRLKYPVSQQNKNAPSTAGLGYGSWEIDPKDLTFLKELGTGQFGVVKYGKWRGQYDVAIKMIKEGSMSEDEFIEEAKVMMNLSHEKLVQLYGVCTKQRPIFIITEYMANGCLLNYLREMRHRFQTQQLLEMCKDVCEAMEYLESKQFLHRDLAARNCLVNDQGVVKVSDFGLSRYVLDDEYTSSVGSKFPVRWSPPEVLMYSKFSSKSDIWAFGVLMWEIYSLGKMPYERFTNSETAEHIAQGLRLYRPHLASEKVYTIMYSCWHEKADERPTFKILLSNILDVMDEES
Put plainly: Btk in vitro inhibitory activity (one of Method A TR-FRET, Method B electrophoretic mobility shift, Method C radiometric filter binding). As to conditions: read-out: IC50 BTK-WT.

The target of the next test is T2, ITK (Homo sapiens, UniProt Q08881).
T2 sequence (Q08881 1-620): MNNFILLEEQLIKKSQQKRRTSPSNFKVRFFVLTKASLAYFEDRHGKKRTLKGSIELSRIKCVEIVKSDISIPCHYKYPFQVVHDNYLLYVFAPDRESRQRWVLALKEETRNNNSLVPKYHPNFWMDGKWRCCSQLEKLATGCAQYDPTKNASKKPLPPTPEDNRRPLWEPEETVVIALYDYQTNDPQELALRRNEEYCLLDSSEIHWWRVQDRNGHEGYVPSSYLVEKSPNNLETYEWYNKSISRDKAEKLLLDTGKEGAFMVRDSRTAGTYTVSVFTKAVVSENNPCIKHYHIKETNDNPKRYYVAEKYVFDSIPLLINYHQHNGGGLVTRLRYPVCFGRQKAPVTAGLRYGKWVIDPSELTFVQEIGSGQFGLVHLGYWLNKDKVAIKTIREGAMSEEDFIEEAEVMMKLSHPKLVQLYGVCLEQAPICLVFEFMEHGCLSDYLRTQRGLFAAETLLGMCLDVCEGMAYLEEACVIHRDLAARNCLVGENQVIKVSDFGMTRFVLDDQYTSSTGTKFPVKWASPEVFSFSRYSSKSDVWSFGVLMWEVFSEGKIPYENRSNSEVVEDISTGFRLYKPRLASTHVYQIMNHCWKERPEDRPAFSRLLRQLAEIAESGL
In words: Inhibition of a panel of kinases, in vitro HotSpot kinase assay: ITK. How it is done: (§1) The degree of inhibition of a panel of kinases is determined using the in vitro HotSpot kinase assay (purified enzymes, ^33P-ATP, an appropriate substrate and 1 μM ATP).

The target in the next test is T3, TXK (Homo sapiens, UniProt P42681).
T3 sequence (P42681 1-527): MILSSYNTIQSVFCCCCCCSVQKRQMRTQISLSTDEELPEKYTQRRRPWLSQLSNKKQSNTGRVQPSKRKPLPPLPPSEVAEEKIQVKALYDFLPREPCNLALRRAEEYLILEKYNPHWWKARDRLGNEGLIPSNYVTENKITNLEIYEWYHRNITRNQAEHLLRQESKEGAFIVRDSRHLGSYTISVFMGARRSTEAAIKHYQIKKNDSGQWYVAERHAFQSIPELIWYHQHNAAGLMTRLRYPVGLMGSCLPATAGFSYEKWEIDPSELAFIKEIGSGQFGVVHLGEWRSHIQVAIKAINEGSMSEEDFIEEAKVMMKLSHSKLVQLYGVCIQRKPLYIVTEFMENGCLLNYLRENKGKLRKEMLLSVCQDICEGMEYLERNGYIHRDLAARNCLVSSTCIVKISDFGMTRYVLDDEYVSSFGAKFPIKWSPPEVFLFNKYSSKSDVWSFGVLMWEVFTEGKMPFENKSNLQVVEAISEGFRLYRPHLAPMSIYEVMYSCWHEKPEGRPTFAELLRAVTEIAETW
Put plainly: Inhibition of a panel of kinases, in vitro HotSpot kinase assay: TXK. The settings on record: Table 15, C compounds; 1 μM ATP. As for the experimental part: as §1

In another test the target is T4, TEC (Homo sapiens, UniProt P42680).
T4 sequence (P42680 1-631): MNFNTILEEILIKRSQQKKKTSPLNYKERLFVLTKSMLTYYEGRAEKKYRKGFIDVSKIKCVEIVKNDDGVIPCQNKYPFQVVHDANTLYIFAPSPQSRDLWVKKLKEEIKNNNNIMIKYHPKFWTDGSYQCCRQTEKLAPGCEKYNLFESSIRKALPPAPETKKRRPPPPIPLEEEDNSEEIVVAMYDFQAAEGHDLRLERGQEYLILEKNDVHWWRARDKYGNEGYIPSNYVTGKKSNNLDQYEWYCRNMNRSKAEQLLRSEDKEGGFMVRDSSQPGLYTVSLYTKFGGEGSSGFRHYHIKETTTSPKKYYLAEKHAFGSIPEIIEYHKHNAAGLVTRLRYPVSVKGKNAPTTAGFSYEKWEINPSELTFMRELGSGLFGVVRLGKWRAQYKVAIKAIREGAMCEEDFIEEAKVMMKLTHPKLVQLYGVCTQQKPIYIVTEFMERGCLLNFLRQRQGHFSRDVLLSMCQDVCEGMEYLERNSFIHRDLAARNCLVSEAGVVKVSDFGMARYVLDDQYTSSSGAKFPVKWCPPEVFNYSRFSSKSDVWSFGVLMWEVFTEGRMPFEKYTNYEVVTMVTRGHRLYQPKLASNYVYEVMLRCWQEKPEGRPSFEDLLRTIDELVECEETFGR
In words: Inhibition of a panel of kinases, in vitro HotSpot kinase assay: TEC. How it is done: as §1

Another test has as its target LCK (Homo sapiens, UniProt P06239). In words: Inhibition of a panel of kinases, in vitro HotSpot kinase assay: LCK. As to conditions: read-out: IC50 LCK.
In another test the target is EGFR (Homo sapiens, UniProt P00533). Put plainly: Inhibition of a panel of kinases, in vitro HotSpot kinase assay: EGFR. As for the experimental part: as §1
Sequence of EGFR (P00533 25-1210): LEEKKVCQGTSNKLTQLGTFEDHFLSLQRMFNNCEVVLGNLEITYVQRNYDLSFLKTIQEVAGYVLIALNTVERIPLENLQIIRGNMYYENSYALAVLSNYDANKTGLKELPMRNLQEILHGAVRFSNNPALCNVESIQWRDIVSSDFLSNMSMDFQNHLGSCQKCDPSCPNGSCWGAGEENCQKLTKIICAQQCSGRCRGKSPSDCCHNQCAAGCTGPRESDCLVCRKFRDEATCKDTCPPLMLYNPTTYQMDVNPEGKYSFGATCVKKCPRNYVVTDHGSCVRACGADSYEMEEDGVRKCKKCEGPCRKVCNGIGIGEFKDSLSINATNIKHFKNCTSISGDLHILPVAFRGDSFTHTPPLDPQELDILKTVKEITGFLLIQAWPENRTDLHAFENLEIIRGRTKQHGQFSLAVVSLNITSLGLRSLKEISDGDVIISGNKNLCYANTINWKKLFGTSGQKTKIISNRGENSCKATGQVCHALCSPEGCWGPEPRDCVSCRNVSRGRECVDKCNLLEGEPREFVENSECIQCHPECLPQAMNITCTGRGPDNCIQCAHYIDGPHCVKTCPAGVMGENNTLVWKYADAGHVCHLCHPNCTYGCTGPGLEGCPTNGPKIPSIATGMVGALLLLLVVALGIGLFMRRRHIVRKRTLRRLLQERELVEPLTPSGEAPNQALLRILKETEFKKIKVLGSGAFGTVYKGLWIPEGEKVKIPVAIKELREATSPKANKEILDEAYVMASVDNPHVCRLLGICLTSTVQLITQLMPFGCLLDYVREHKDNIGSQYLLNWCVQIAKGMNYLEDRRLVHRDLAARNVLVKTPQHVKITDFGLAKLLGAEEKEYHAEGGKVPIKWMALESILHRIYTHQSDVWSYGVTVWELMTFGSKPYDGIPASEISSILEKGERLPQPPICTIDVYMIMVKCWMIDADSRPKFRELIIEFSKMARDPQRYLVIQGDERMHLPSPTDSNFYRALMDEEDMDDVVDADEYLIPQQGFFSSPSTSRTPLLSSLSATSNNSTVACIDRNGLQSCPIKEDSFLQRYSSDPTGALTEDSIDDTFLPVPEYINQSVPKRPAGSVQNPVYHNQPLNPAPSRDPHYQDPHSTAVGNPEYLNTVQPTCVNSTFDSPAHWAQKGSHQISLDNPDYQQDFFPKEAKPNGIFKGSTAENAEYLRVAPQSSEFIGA
A further test has as its target SRC (Homo sapiens, UniProt P12931). Put plainly: Inhibition of a panel of kinases, in vitro HotSpot kinase assay: SRC. The settings on record: D-compounds panel data; 1 μM ATP. As for the experimental part:
as §1

The mark [1] stands for this setting: Table 15, C compounds, 1 μM ATP.
[2] abbreviates: D-compounds panel data, 1 μM ATP.

Sequence of LCK (P06239 whole entry): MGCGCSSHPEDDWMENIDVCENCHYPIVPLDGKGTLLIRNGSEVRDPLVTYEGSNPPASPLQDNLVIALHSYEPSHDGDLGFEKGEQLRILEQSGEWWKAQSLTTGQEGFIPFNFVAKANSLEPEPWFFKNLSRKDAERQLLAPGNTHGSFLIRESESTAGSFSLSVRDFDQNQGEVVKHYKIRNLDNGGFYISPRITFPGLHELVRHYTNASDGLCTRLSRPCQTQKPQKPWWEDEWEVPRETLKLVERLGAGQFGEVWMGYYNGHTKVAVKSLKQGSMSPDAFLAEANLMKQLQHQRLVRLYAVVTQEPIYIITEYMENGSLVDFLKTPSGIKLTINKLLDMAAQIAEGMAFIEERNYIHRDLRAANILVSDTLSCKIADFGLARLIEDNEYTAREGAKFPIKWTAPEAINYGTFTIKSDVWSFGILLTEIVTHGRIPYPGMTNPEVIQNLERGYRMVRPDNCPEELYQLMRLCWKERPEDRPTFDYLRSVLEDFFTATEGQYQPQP
Sequence of SRC (P12931 whole entry): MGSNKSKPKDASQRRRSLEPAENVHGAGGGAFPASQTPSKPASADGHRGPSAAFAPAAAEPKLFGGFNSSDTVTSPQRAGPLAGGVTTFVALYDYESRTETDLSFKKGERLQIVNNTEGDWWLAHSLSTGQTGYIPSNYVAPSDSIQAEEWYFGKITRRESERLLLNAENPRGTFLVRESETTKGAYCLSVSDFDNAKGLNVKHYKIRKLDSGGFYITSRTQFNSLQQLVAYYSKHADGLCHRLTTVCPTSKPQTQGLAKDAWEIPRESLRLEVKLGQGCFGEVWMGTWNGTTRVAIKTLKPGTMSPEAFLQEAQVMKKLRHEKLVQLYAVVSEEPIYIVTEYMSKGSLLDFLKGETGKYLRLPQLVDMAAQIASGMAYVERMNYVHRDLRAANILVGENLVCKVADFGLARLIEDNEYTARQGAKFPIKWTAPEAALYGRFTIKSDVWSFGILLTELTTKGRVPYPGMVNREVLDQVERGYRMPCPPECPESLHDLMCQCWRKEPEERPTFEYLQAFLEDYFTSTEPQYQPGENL

Regarding `C=CC(=O)N1CCC[C@@H](Nc2nnc(C(N)=O)c(Nc3ccc(-c4ncccn4)cc3)n2)C1` [Example C-52, (R)-3-(1-acryloylpiperidin-3-ylamino)-5-(4-(pyrimidin-2-yl)phenylamino)-1,2,4-triazine-6-carboxamide], the half-maximal inhibitory concentration (IC50) at BTK-WT (Table 15, C compounds) was no more than 10 nM; against ITK (setting [1]), 10 to 100 nM; against TXK it was no more than 10 nM; against TEC (setting [1]), no more than 10 nM.

On to `C=CC(=O)N1CCC[C@@H](Nc2cnc(C(N)=O)c(Nc3ccc(C4CCN(C5CCCC5)CC4)cc3)n2)[C@H]1C` [Example E-99, 5-((2R,3R)-1-acryloyl-2-methylpiperidin-3-ylamino)-3-(4-(1-cyclopentylpiperidin-4-yl)phenylamino)pyrazine-2-carboxamide], for which the concentration for half-maximal inhibition (IC50) on BTK-WT (E compounds, Table 17) is no more than 10 nM; on LCK (E compounds, Table 17), 10 to 100 nM; against EGFR (E compounds, Table 17), no more than 10 nM; at ITK (E compounds, Table 17), no more than 10 nM; against TEC (E compounds, Table 17), no more than 10 nM.

For `C=CC(=O)N1CCC[C@@H](Nc2nnc(C(N)=O)c(Nc3ccc(I)cc3)n2)C1` [Example C-62, (R)-3-(1-acryloylpiperidin-3-ylamino)-5-(4-iodophenylamino)-1,2,4-triazine-6-carboxamide], the half-maximal inhibitory concentration (IC50) on BTK-WT (Table 15, C compounds) is no more than 10 nM; at ITK (setting [1]), 10 to 100 nM; against TXK it was no more than 10 nM; on TEC (setting [1]), no more than 10 nM.

`C=CC(=O)N1CCC[C@@H](Nc2cnc(C(N)=O)c(Nc3ccc(C4(C)CCN(C5CCCC5)CC4)cc3)n2)[C@H]1C` [Example E-100, 5-((2R,3R)-1-acryloyl-2-methylpiperidin-3-ylamino)-3-(4-(1-cyclopentyl-4-methylpiperidin-4-yl)phenylamino)pyrazine-2-carboxamide]: the 50% inhibitory concentration (IC50) was no more than 10 nM at BTK-WT (E compounds, Table 17); 10 to 100 nM on LCK (E compounds, Table 17); no more than 10 nM at EGFR (E compounds, Table 17); no more than 10 nM at ITK (E compounds, Table 17); no more than 10 nM against TEC (E compounds, Table 17).

As for `C=CC(=O)N1CCC[C@@H](Nc2nnc(C(N)=O)c(Nc3ccc(CN(C(=O)OCc4ccccc4)[C@@H](C)C(C)(C)C)cc3)n2)C1` [Example C-72, benzyl 4-(3-((R)-1-acryloylpiperidin-3-ylamino)-6-carbamoyl-1,2,4-triazin-5-ylamino)benzyl((S)-3,3-dimethylbutan-2-yl)carbamate], the IC50 was no more than 10 nM at BTK-WT (Table 15, C compounds); 10 to 100 nM at ITK (setting [1]); 10 to 100 nM against TXK; no more than 10 nM against TEC (setting [1]).

With `C=CC(=O)N1CCC[C@@H](Nc2nnc(C(N)=O)c(Nc3ccc(-n4nccn4)cc3)n2)C1` [Example C-81, (R)-5-(4-(2H-1,2,3-triazol-2-yl)phenylamino)-3-(1-acryloylpiperidin-3-ylamino)-1,2,4-triazine-6-carboxamide], the IC50 at BTK-WT (Table 15, C compounds) was no more than 10 nM; at ITK (setting [1]), 10 to 100 nM; against TXK it was no more than 10 nM; at TEC (setting [1]) it was no more than 10 nM.

Regarding `C=CC(=O)N1CCC[C@@H](Nc2nnc(C(N)=O)c(Nc3ccc(-n4cncn4)cc3)n2)C1` [Example C-83, (R)-5-(4-(1H-1,2,4-triazol-1-yl)phenylamino)-3-(1-acryloylpiperidin-3-ylamino)-1,2,4-triazine-6-carboxamide], the half-maximal inhibitory concentration (IC50) is no more than 10 nM on BTK-WT (Table 15, C compounds); 10 to 100 nM against ITK (setting [1]); no more than 10 nM against TXK; no more than 10 nM on TEC (setting [1]).

On to `C=CC(=O)N1CCC[C@@H](Nc2nnc(C(N)=O)c(Nc3ccc(C4CCN(C5CCCC5)CC4)cc3)n2)C1` [Example C-60, (R)-3-(1-acryloylpiperidin-3-ylamino)-5-(4-(1-cyclopentylpiperidin-4-yl)phenylamino)-1,2,4-triazine-6-carboxamide], for which the concentration for half-maximal inhibition (IC50) on BTK-WT (Table 15, C compounds) is no more than 10 nM; against ITK (setting [1]), no more than 10 nM; on TXK it was no more than 10 nM; at TEC (setting [1]), no more than 10 nM.

`C=CC(=O)N1CCC[C@@H](Nc2nnc(C(N)=O)c(Nc3cccc(-n4nccn4)c3)n2)C1` [Example E-61, (R)-5-(3-(2H-1,2,3-triazol-2-yl)phenylamino)-3-(1-acryloylpiperidin-3-ylamino)-1,2,4-triazine-6-carboxamide]: the IC50 at BTK-WT (E compounds, Table 17) was no more than 10 nM; at LCK (E compounds, Table 17) it was 100 to 1000 nM; at EGFR (E compounds, Table 17) it was 10 to 100 nM; against ITK (E compounds, Table 17) it was 10 to 100 nM; on TEC (E compounds, Table 17), no more than 10 nM.

With `C[C@@H]1[C@H](NC(=O)c2ccc(C3CC3)cc2)CCCN1c1cnc(C(N)=O)c(Nc2ccc(N3CCCCC3)cc2)n1` [Example D-37, 5-[(2R,3R)-3-(4-cyclopropylbenzamido)-2-methylpiperidin-1-yl]-3-{[4-(piperidin-1-yl)phenyl]amino}pyrazine-2-carboxamide], the IC50 lay within 10 to 100 nM at BTK-WT (D-compounds panel data); 100 to 1000 nM at LCK (setting [2]); 100 to 1000 nM at EGFR (setting [2]); 1000 to 10000 nM against SRC; 1000 to 10000 nM against ITK (setting [2]); 10 to 100 nM against TEC (setting [2]).

`C=CC(=O)N1CCC[C@@H](Nc2nnc(C(N)=O)c(Nc3ccc4ncccc4c3)n2)C1` [Example E-68, (R)-3-(1-acryloylpiperidin-3-ylamino)-5-(quinolin-6-ylamino)-1,2,4-triazine-6-carboxamide]: the IC50 on BTK-WT (E compounds, Table 17) was no more than 10 nM; at LCK (E compounds, Table 17), 100 to 1000 nM; against EGFR (E compounds, Table 17) it was no more than 10 nM; at ITK (E compounds, Table 17) it was no more than 10 nM; at TEC (E compounds, Table 17), no more than 10 nM.

Turning to `C=CC(=O)N1CCC[C@@H](Nc2nnc(C(N)=O)c(Nc3ccc(-c4nn[nH]n4)cc3)n2)C1` [Example E-64, (R)-5-(4-(2H-tetrazol-5-yl)phenylamino)-3-(1-acryloylpiperidin-3-ylamino)-1,2,4-triazine-6-carboxamide], the IC50 is no more than 10 nM on BTK-WT (E compounds, Table 17); no more than 10 nM against EGFR (E compounds, Table 17); 10 to 100 nM against ITK (E compounds, Table 17); no more than 10 nM against TEC (E compounds, Table 17).

As for `C=CC(=O)N1CCC[C@@H](Nc2nnc(C(N)=O)c(Nc3ccc(-n4nccn4)cc3)n2)C1` [Example E-67, (R)-5-(4-(2H-1,2,3-triazol-2-yl)phenylamino)-3-(1-acryloylpiperidin-3-ylamino)-1,2,4-triazine-6-carboxamide], the half-inhibitory concentration (IC50) on BTK-WT (E compounds, Table 17) was no more than 10 nM; at LCK (E compounds, Table 17), 100 to 1000 nM; on EGFR (E compounds, Table 17), 10 to 100 nM; against ITK (E compounds, Table 17) it was 10 to 100 nM; against TEC (E compounds, Table 17), no more than 10 nM.

As for `C=CC(=O)N1CCC[C@@H](Nc2nnc(C(N)=O)c(Nc3cccc(-c4ncccn4)c3)n2)C1` [Example E-55, (R)-3-(1-acryloylpiperidin-3-ylamino)-5-(3-(pyrimidin-2-yl)phenylamino)-1,2,4-triazine-6-carboxamide], the concentration for half-maximal inhibition (IC50) on BTK-WT (E compounds, Table 17) is no more than 10 nM; at EGFR (E compounds, Table 17), 10 to 100 nM; against ITK (E compounds, Table 17), 10 to 100 nM; at TEC (E compounds, Table 17), no more than 10 nM.
